{
  "source": "patent US6488933B2",
  "about": "“Preparations for the treatment of T cell mediated diseases” (Yeda Research and Development Co. Ltd., priority 1995, dated 2002)",
  "key": {"IDDM": {"tested_on": "IDDM", "conditions": "mice, subcutaneously (sc) in an oil vehicle (IFA); cited from earlier work"}, "autoimmune T cells": {"tested_on": "autoimmune T cells", "experiment": "p277(Val^6-Val^11)-peptide treatment: spontaneous T-cell responses and autoantibodies (summary statement)", "type": "in vivo, mouse", "conditions": "peptide in an appropriate carrier"}, "NOD mice": {"tested_on": "NOD mice", "experiment": "Antibody isotypes induced by p277(Val^6-Val^11) therapy, isotype ELISA (Example 3)", "type": "in vivo, mouse", "conditions": "NOD mice 3 months old, treated in oil, FIG. 2", "experimental": "The sera of individual mice were assayed for the isotypes of their antibodies to p277(Val6-Val^11) after treatment (12-15 mice per group). The antibody isotypes were detected using an ELISA assay with isotype-specific developing antibody reagents (Southern Biotechnology Associates, Birmingham, Ala.). […] The columns in each experiment show results from equal numbers of mice; an apparent reduction in numbers of circles is caused by superimposition."}, "[1]": {"tested_on": "T cells reactive to the p277(Val^6-Val^11)", "experiment": "Cytokine profile of spleen cells of treated NOD mice, cytokine ELISA (Example 4)", "type": "in vivo, mouse", "conditions": "spleen cells 5 weeks after treatment", "text": "Concanavalin A (ConA), a T-cell mitogen, was used to activate total splenic T-cells as a control.\nFive weeks later, the spleens of the mice were removed and the spleen cells were pooled. […] The presence of the cytokines in the culture supernatants was quantitated by ELISA, using Pharmingen paired antibodies according to the Pharmingen cytokine ELISA protocol. Pharmingen recombinant mouse cytokines were used as standards for calibration curves. Briefly, flat-bottom 96-well microtiter plates were coated with rat anti-mouse cytokine mAbs for 18 h at 4° C., and the culture supernatants or recombinant mouse cytokines were added for 18 h at 4° C. The plates were washed, and biotinylated rat anti-mouse cytokine mAbs were added for 45 min at room temperature, then extensively washed, and avidin-alkaline phosphatase was added. The plates were washed, a chromogen substrate (p-nitrophenylphosphate) was added and samples were read at 405 nm in an ELISA reader. The concentrations of cytokines are shown as the OD readings. *P<0.01."}},
  "data": [
    {"substance": "p12: human hsp60 positions 166-185: EEIAQVATISANGDKEIGNI", "values": [
      {"measurement": "Peptide therapy for treatment of IDDM", "setting": "IDDM", "result": "effective"}
    ]},
    {"substance": "p32: human hsp60 positions 466-485: EIIKRTLKIPAMTIAXNAGV (EIIKRTLKIPAMTIAKNAGV)", "values": [
      {"measurement": "Peptide therapy for treatment of IDDM", "setting": "IDDM", "result": "effective"}
    ]},
    {"substance": "p277(Val^6-Val^11): SEQ ID NO 4, hsp60 437-460 with C-442 and C-447 changed to V: VLGGGVALLRVIPALDSLTPANED", "values": [
      {"measurement": "production of autoantibodies to hsp60, to GAD and to insulin", "setting": "autoimmune T cells", "result": "abolished"},
      {"measurement": "spontaneous T-cell proliferative responses to epitopes of both hsp60 and GAD", "setting": "autoimmune T cells", "result": "down-regulated"},
      {"measurement": "spontaneous T-cell response of the treated mice to a bacterial hsp60 peptide", "setting": "autoimmune T cells", "result": "remained in the TH1 mode"},
      {"measurement": "TH1-type IgG2a antibodies", "setting": "NOD mice", "result": "no TH1-type IgG2a antibodies induced"},
      {"measurement": "isotypes of the anti-p277 antibodies developing after treatment", "setting": "NOD mice", "result": "exclusively of the IgG1 and IgG2b classes"},
      {"measurement": "IL-2 cytokine response to ConA", "setting": "[1]; 24 h incubation with Con A, FIG. 3B", "result": "maintained"},
      {"measurement": "IL-2 secretion in response to incubation with peptide p277(Val^6-Val^11)", "setting": "[1]; 24 h incubation, vs control mice (PBS in Intralipid), P<0.01, FIG. 3A", "result": "significantly less"},
      {"measurement": "IFNγ cytokine response to ConA", "setting": "[1]; 48 h incubation with Con A, FIG. 3B", "result": "maintained"},
      {"measurement": "IFNγ secretion in response to incubation with peptide p277(Val^6-Val^11)", "setting": "[1]; 48 h incubation, vs control mice (PBS in Intralipid), P<0.01, FIG. 3A", "result": "significantly less"}
    ]},
    {"substance": "p277: human hsp60 positions 437-460: VLGGGCALLRCIPALDSLTPANED", "values": [
      {"measurement": "Peptide therapy for treatment of IDDM", "setting": "IDDM", "result": "effective"}
    ]}
  ]
}
